Results reported in patent EP1373238B1, “ALKYLXANTHATES AND THEIR USE AS PESTICIDES” (priority 2001, dated 2002).
Values after ≈ are worked out from the molar mass of the structure shown. Where two headings read alike, the source gives them in different places.

Legend:
Format in all cases: in vivo
[1] = system: late third instar of Spodoptera litura; test: Antifeedant activity, painted leaf disks of Ricinus cummunis; design: key to A.I (Anti-feedent index): percent protection of treated vs untreated leaf disks; details: for Concentration required for 50% leaf protection EC50 ±S.E: oral feeding, leaf disk
Description: (§1) The average mortality and growth inhibition data of experiments was subjected to IBM AT 386 computer analysis at our laboratory for calculating LC50, LD50, EC50, ED50,etc., and other statistical data. The software used was developed by Reddy et al., 1992.
Methodology for Antifeedant activity: Tobacco caterpillar, Spodoptera litura F., larvae will be reared on Ricinus cummunis L. leaves at 27°C and 65-70% R.H. Known area (cm^2) of leaf disks were painted with exact amount of pure compound (dissolved in acetone) and were dried at room temperature till the carrier solvent evaporated. For each concentration 5 to 6 replicates were prepared and experiments were conducted individually. Control disks were dipped in carrier solvent (acetone) alone. Third instar larvae weighing 200-250 mg are selected from stock culture, starved for 4 hr, and will be used individually for the assay of antifeedant activity. After 12 and 24 hours, leaf area meter was used to measure the consumed area of treated and untreated leaves. Based on the data the percent protection of individual compound was calculated. All these properties were compared with well-known antifeedant isolated from neem kemal 'Azadiractin'. Control and test larvae arc transferred on fresh leaves and'monitored till adult emergence to study the growth and behavioral aspects of the insect.

[2] = system: Helicoverpa armigera (Hubner); test: Growth regulatory (IGR) activity, topical application
[3] = system: Brine shrimp, Artemia salina; test: Brine shrimp bioassay (toxic activity); details: read-out: LC50 ± S.E.
Description: Brine shrimp (Artemiasalina) eggs were hatched in a shallow rectangular dish filled with artificial seawater, which was prepared with commercial salt mixture and double distilled water. A plastic divider with several 2-mm holes was clamped in the dish to make two unequal compartments. The eggs were sprinkled into the larger compartment that was darkened, while the smaller compartment was illuminated. After 48 hours the phototropic nauplii were collected by pipette from the lighted side, being separated by the divider from their shells.
Twenty shrimps were transferred to each sample vial and artificial seawater was added to make 5 ml. The nauplii can becounted macroscopically in the stem of the pipette against a lighted back ground. A drop of dry yeast suspension (3µg in5ml artificial seawater) was added as food to each vial (Meyer, et al., 1982). Survivors were counted with the aid of a 3 x magnifying glass, after 24 hours, and the percent mortality at each concentration and control was determined. The 24 hour counts were more useful. During control deaths, the data was corrected using Abbot's formula.
as §1

[4] = system: IV instar larvae of Aedes aegypti; test: Larvicidal activity against mosquito larvae (WHO procedure, 24 hours exposure); details: read-out: LC50 ± S.E.
Description: To determine the efficacy of different analogues of Alkylxanthates against mosquito larvae, standard procedures as recommended by World Health Organization (1981) were followed with minor modifications. The desired concentration of the test solution was obtained by adding 1 ml of an appropriate stock solution to 249 ml of tap water in 500 ml beaker. Test solutions of different concentrations were prepared by diluting the stock solution in dechlorinated and filtered tap water followed by thorough mixing. Tween -80 [Poly (oxyethylene)n - sorbitan monooleate] was used as an emulsifier at the concentration of 0.002% (v/v) to the final test solution whenever required. Control solutions were prepared in tapwater using acetone or ethanol and Tween -80 (0.002%). To each of the -test concentrations, 25 late third or early fourth instar larvae which were acclimatized earlier were added. At least three replicates of each of the tests were made. Based on the results, five to ten suitable concentrations, which produced 10 to 100% mortality, were selected for detailed study and for calculating LC50 values. Mortality was observed 24 hours after exposing the larvaeto test solutions and the data was corrected for control mortality if any, by using Abbot's formula (Abbot 1925). All tests were carried out at a room temperature maintained at 28 ± 1°C.
as §1

[5] = IV instar larvae, mortality after 24 hours

C/C=C(\C)C(=O)O[C@H]1C[C@@H](OC(C)=O)[C@@]2(C(=O)OC)CO[C@H]3[C@@H](O)[C@@](C)([C@]45O[C@@]4(C)[C@H]4C[C@@H]5O[C@@H]5OC=C[C@@]54O)[C@H]4[C@]1(CO[C@]4(O)C(=O)OC)[C@@H]32 [Azadiractin, reference compound]
A.I (Anti-feedent index) ([1]; 5.0 µg/sq.cm.): 24.84 | Percent leaf consumption 12 hr ([1]; 5.0 µg/sq.cm.): 33.7% | Percent leaf consumption 24 hr ([1]; 5.0 µg/sq.cm.): 57.2% | A.I (Anti-feedent index) ([1]; 10 µg/sq.cm.): 48.09 | Percent leaf consumption 12 hr ([1]; 10 µg/sq.cm.): 18.6% | Percent leaf consumption 24 hr ([1]; 10 µg/sq.cm.): 33.3% | A.I (Anti-feedent index) ([1]; 15 µg/sq.cm.): 54.98 | Percent leaf consumption 12 hr ([1]; 15 µg/sq.cm.): 16.4% | Percent leaf consumption 24 hr ([1]; 15 µg/sq.cm.): 27.6% | A.I (Anti-feedent index) ([1]; 20 µg/sq.cm.): 76.42 | Percent leaf consumption 12 hr ([1]; 20 µg/sq.cm.): 4.2% | Percent leaf consumption 24 hr ([1]; 20 µg/sq.cm.): 12.7% | Concentration required for 50% leaf protection EC50 ±S.E [1]: 6.34±.77 µg/cm^2 | IGR activity, mode of action [2]: less larvicidal activity, minimized in the formation of normal pupae and emergence of normal adults

CC[C@@]1(O)C(=O)OCc2c1cc1n(c2=O)Cc2cc3ccccc3nc2-1 [Chamtothecin, reference compound]
LC50 ([3]; 24 h): 2.53 ± 0.43 µg/mL (≈ 7.26 µM)

S=C(OCC1CCCO1)SCSC(=S)OCC1CCCO1 (stereo not shown) [Compound 1, Methylene Bis(tetrahydrofurfurylxanthate)]
LC50 ([4]; iv, 24 h): 3.77 ± 0.59 µg/mL (≈ 10.2 µM) | A.I (Anti-feedent index) ([1]; 12.5 µg/sq.cm.): 8.20 | Percent leaf consumption 12 hr ([1]; 12.5 µg/sq.cm.): 48.6% | Percent leaf consumption 24 hr ([1]; 12.5 µg/sq.cm.): 80.6% | A.I (Anti-feedent index) ([1]; 25 µg/sq.cm.): 22.42 | Percent leaf consumption 12 hr ([1]; 25 µg/sq.cm.): 31.5% | Percent leaf consumption 24 hr ([1]; 25 µg/sq.cm.): 60.2% | A.I (Anti-feedent index) ([1]; 35 µg/sq.cm.): 33.52 | Percent leaf consumption 12 hr ([1]; 35 µg/sq.cm.): 25.9% | Percent leaf consumption 24 hr ([1]; 35 µg/sq.cm.): 47.3% | A.I (Anti-feedent index) ([1]; 50 µg/sq.cm.): 35.23 | Percent leaf consumption 12 hr ([1]; 50 µg/sq.cm.): 22.1% | Percent leaf consumption 24 hr ([1]; 50 µg/sq.cm.): 45.5% | Concentration required for 50% leaf protection EC50 ±S.E [1]: 37.21±9.67 µg/cm^2 | LC50 ([3]; mortality after 24 hours): 5.63 ± 0.62 µg/mL (≈ 15.3 µM)

CCCCOC(=S)SCc1cccc(F)c1 [Compound 2, m-Fluorobenzyl (n-butylxanthate)]
LC50 ([4]; iv, 24 h): 12.5 ± 1.24 µg/mL (≈ 48.5 µM) | LC50 ([3]; mortality after 24 hours): 19 ± 2.83 µg/mL (≈ 73.5 µM)

CC(C)COC(=S)SCc1cccc(F)c1 [Compound 3, m-Fluorobenzyl (isobutylxanthate)]
LC50 ([4]; iv, 24 h): 11.8 ± 2.35 µg/mL (≈ 45.6 µM) | A.I (Anti-feedent index) ([1]; 10 µg/sq.cm.): 11.63 | Percent leaf consumption 12 hr ([1]; 10 µg/sq.cm.): 50.4% | Percent leaf consumption 24 hr ([1]; 10 µg/sq.cm.): 75.2% | A.I (Anti-feedent index) ([1]; 15 µg/sq.cm.): 16.07 | Percent leaf consumption 12 hr ([1]; 15 µg/sq.cm.): 33.24% | Percent leaf consumption 24 hr ([1]; 15 µg/sq.cm.): 68.7% | A.I (Anti-feedent index) ([1]; 20 µg/sq.cm.): 27.86 | Percent leaf consumption 12 hr ([1]; 20 µg/sq.cm.): 24.7% | Percent leaf consumption 24 hr ([1]; 20 µg/sq.cm.): 53.6% | A.I (Anti-feedent index) ([1]; 25 µg/sq.cm.): 48.67 | Percent leaf consumption 12 hr ([1]; 25 µg/sq.cm.): 12.5% | Percent leaf consumption 24 hr ([1]; 25 µg/sq.cm.): 32.8% | Concentration required for 50% leaf protection EC50 ±S.E [1]: 19.65±2.99 µg/cm^2 | LC50 ([3]; mortality after 24 hours): 22.5 ± 3.26 µg/mL (≈ 87.2 µM)

CC(C)COC(=S)SCCSC(=S)OCC(C)C [Compound 4, Ethylene Bis (isobutylxanthate)]
LC50 [4, 5]: 8.06 ± 0.22 µg/mL (≈ 24.7 µM) | LC50 ([3]; mortality after 24 hours): 25.8 ± 2.9 µg/mL (≈ 78.9 µM)

CCCCOC(=S)SCSC(=S)OCCCC [Compound 5, Methylene Bis (n-butytxanthate)]
LC50 [4, 5]: 5.33 ± 0.97 µg/mL (≈ 17.1 µM) | A.I (Anti-feedent index) ([1]; 10 µg/sq.cm.): 5.50 | Percent leaf consumption 12 hr ([1]; 10 µg/sq.cm.): 48.5% | Percent leaf consumption 24 hr ([1]; 10 µg/sq.cm.): 85.1% | A.I (Anti-feedent index) ([1]; 15 µg/sq.cm.): 22.27 | Percent leaf consumption 12 hr ([1]; 15 µg/sq.cm.): 35.2% | Percent leaf consumption 24 hr ([1]; 15 µg/sq.cm.): 60.4% | A.I (Anti-feedent index) ([1]; 20 µg/sq.cm.): 35.14 | Percent leaf consumption 12 hr ([1]; 20 µg/sq.cm.): 22.5% | Percent leaf consumption 24 hr ([1]; 20 µg/sq.cm.): 45.6% | A.I (Anti-feedent index) ([1]; 25 µg/sq.cm.): 64.22 | Percent leaf consumption 12 hr ([1]; 25 µg/sq.cm.): 3.5% | Percent leaf consumption 24 hr ([1]; 25 µg/sq.cm.): 20.7% | A.I (Anti-feedent index) ([1]; 30 µg/sq.cm.): 85.37 | Percent leaf consumption 12 hr ([1]; 30 µg/sq.cm.): -0- % | Percent leaf consumption 24 hr ([1]; 30 µg/sq.cm.): 7.5% | Concentration required for 50% leaf protection EC50 ±S.E [1]: 17.11±1.36 µg/cm^2 | LC50 ([3]; mortality after 24 hours): 34.6 ± 3.91 µg/mL (≈ 111 µM)

CCCCOC(=S)SCc1ccc(CSC(=S)OCCCC)cc1 [Compound 12, p-Xylene Bis (n-butylcanthate)]
LC50 [4, 5]: 7.35 ± 0.51 µg/mL (≈ 18.3 µM) | A.I (Anti-feedent index) ([1]; 10 µg/sq.cm.): 2.59 | Percent leaf consumption 12 hr ([1]; 10 µg/sq.cm.): 57.3% | Percent leaf consumption 24 hr ([1]; 10 µg/sq.cm.): 90.2% | A.I (Anti-feedent index) ([1]; 15 µg/sq.cm.): 5.97 | Percent leaf consumption 12 hr ([1]; 15 µg/sq.cm.): 62.4% | Percent leaf consumption 24 hr ([1]; 15 µg/sq.cm.): 84.3% | A.I (Anti-feedent index) ([1]; 20 µg/sq.cm.): 24.51 | Percent leaf consumption 12 hr ([1]; 20 µg/sq.cm.): 35.2% | Percent leaf consumption 24 hr ([1]; 20 µg/sq.cm.): 57.6% | A.I (Anti-feedent index) ([1]; 25 µg/sq.cm.): 58.86 | Percent leaf consumption 12 hr ([1]; 25 µg/sq.cm.): 20.5% | Percent leaf consumption 24 hr ([1]; 25 µg/sq.cm.): 24.6% | Concentration required for 50% leaf protection EC50 ±S.E [1]: 20.45±1.76 µg/cm^2 | LC50 ([3]; mortality after 24 hours): 45.2 ± 5.63 µg/mL (≈ 112 µM)
